Test results reported in PMC6944487, “Tandem Molecular Self-Assembly Selectively Inhibits Lung Cancer Cells by Inducing Endoplasmic Reticulum Stress” (Research, 2019).
Like-named read-outs stand apart in the source and are kept apart here. *1 amine or outer side, *2 acyl side, *3 side chain or, on linkers, in order; H or OH if unused. Where a SMILES comes first, the peptide text is derived from it. [ ]: non-standard residue; d: D form. The star is where a group is joined. X1 = O=C(c1ccc(/N=N/c2ccc(N[*:1])cc2)cc1)[*:2]; pY = N[C@@H](Cc1ccc(OP(=O)(O)O)cc1)C(=O)O; NBD = O=[N+]([O-])c1ccc(*)c2nonc12; βAla = NCCC(=O)O

Assays:
A549 xenograft tumors = assay: In vivo antitumor assay, A549 xenograft; parameters: species or system BALB/c nude mice; details: 5 mg/kg i.v. once every three days, tumors at day 15
Experimental: (§1) A549 cells were maintained in our lab. The BALB/c nude (6 weeks old, female) mice purchased from Beijing Vital River Laboratory Animal Technology Co., Ltd. were used. 5 × 10^7 A549 cells (100 μL) mixed with growth factor-reduced Matrigel (50 μL, BD Biosciences) were subcutaneously injected into the right flank of each mouse. The drug treatment was started when tumor volume reached 80 mm^3; the tumor volume was calculated by the formula: length∗width^2/2. Mice (n = 5) received compounds 1, 2, 4, and 5 (5.0 mg/kg) in PBS by i.v. injection, whereas the control group (n = 5) received PBS only. The compound was injected every three days. The mice were weighed, and tumors were measured every two days during the treatment period.
The mice were sacrificed to obtain tumor tissues; tumor tissues were fixed by 4% formalin over 48 h, embedded in paraffin, cut into 5-6 μm sections for H&E staining, and evaluated using light microscopy as previously described method.

[1] = Critical aggregation concentration (CAC) by dynamic light scattering; format: physicochemical; details: DLS, light scattering intensity per concentration, PBS pH 7.4
Experimental: The synthesized compounds were characterized by 1H NMR (Bruker ARX-400) using DMSO-d6 as the solvent. HPLC was conducted at the LUMTECH HPLC (Germany) system using a C18 RP column with methanol (0.05% of TFA) and water (0.05% of TFA) as the eluents. LC-MS was conducted at the LCMS-20AD (Shimadzu) system. HR-MS was performed at the Agilent 6520 Q-TOF LC/MS using ESI-L low concentration tuning mix (Lot No. LB60116 from the Agilent Tech.). CMC values and size distribution of micelles were determined by dynamic light scattering (DLS); this experiment was conducted on a laser light scattering spectrometer (BI-200SM, Brookhaven, USA). The morphology conversion of the peptide derivatives was measured by TEM performed on a Tecnai G2 F20 system, operating at 200 kV. Cellular uptake and drug tracking images were taken by a confocal laser scanning microscopy (Leica TSC SP8, Germany).
The CAC value of compounds 1, 2, 4, and 5 in PBS solution (pH = 7.4) was determined by dynamic light scattering (DLS), and the light scattering intensity was recorded for each concentration analyzed.

A549 cells [2] = assay: JC-1 staining, mitochondrial membrane potential; format: cell-based, human; details: 200 μM, 4 h time point
Experimental: Mitochondrial membrane potential was assessed by staining with JC-1 dye (5,50,6,60-tetrachloro-1,10,3,30-tetraethylbenzimidazol-carbocyanine iodide) (abcam). 1 × 10^4 A549 cells per well, seeded in 96-well plates, were treated with Comp.1 (200 μM) for different time points and FCCP (100 μM) for 4 h. After treatment, a medium was removed and the cells were then incubated in 100 μL PBS containing JC-1 dye (20 μM) for 15 min at 37°C and subsequently washed with PBS for three times. The red fluorescence (λexc. = 543 nm, emission = 570‐620 nm) was determined by a microplate reader (BioTek).
A549 cells were seeded in CLSM cultural dish at a density of 1 × 10^5 cells. After incubation for 12 h, a medium was removed. The cells were then incubated with Comp. 1 (200 μM) at different time points. The cells also were incubated with FCCP (100 μM) for 4 h as the positive control group. Then, removing medium, JC-1 staining kit (20 μM) was incubated with A549 cells for 15 min. The medium was removed, and the cells were washed by PBS three times. 1 mL of PBS was added for imaging by live cell imaging systems (green channel (depolarization) λexc. = 488 nm, emission = 500 − 540 nm; red channel (hyperpolarization) λexc. = 543 nm, emission = 570‐620 nm, all test conditions are consistent).

A549 cells [3] = assay: Mitochondrial colocalization / cytoplasmic vacuolization, ER stress (CLSM, Mito-Tracker); format: cell-based, human; details: 200 μM, 10-12 h
Experimental: (§2) A549 cells was seeded in CLSM cultural dish at a density of 1 × 10^5 cells. After incubation for 12 h, a medium was removed. The cells were then incubated with Comp. 1, 2, 4, or 5 (200 μM) for 1 or 4 h (lysosome colocation). Cells were incubated with Comp. 1 (200 μM) for 8, 10, and 12 h (mitochondrial colocation). Next, the medium containing different compound was removed and washed by PBS for three times, and lysosome tracker (1×) was incubated with cells for 45 min. The medium was removed and the cells were washed by PBS three times. 1-2 mL of DMEM was added for imaging by live cell imaging systems (λexc. = 488 nm, emission = 510‐560 nm; λexc. = 543 nm, emission = 650‐750 nm). Mito-Tracker (1×) was incubated with cells for 30 min. The medium was then removed and washed by PBS three times. 1-2 mL of DMEM was added for imaging by live cell imaging systems (λexc. = 488 nm, emission = 510‐560 nm; λexc. = 633 nm, emission = 650‐750 nm, all test conditions are consistent).

HeLa cells = assay: Cell proliferation (SRB) assay, HeLa; format: cell-based; details: 48 h incubation, n = 3
Experimental: (§3) PC-3, MCF-7, HeLa, U87, HPAEpiC, and A549 cells were purchased from the Type Culture Collection of the Chinese Academy of Sciences (Shanghai, China); PC-3, MCF-7, HeLa, U87, and A549 cells were cultured in Dulbecco's Modified Eagle's medium (DMEM) supplemented with 10% v/v fetal bovine serum (FBS), 100 U/mL penicillin, and 100 μg/mL streptomycin; HPAEpiC cells were cultured in RPMI 1640 Medium supplemented with 10% v/v fetal bovine serum, 100 U/mL penicillin, and 100 μg/mL streptomycin. All cells were at 37°C in a humidified atmosphere of 5% CO2.
(§4) In this experiment, all cell lines were incubated in a 96-well plate at a density of about 6000. According to previous method, cell was fixed by cold 10% trichloroacetic acid solution at 4°C overnight after incubated with compound for 48 h. Then, discarding the fixative solution and washed by water for three times, put the 96-well plate in a 37°C oven to dry. Next, 0.4% SRB solution was used to stain cell for 20 min at room temperature to form protein-bound dry, then using 1% AcOH solution to clean excessive SRB. Put the 96-well plate in a 37°C oven to dry and add 10 mM Tris base solution of 100 μL every well to solubilize the protein-bound dry for 30 min. Measure the OD at 570 nm in a microplate reader.

A549 cells [4] = assay: Cell proliferation (SRB) assay, A549; format: cell-based, human
Experimental: as §3, §4

different cell lines = assay: Cell uptakes; format: cell-based; details: 200 μM, 6 h, cell lysate OD 488 nm, n = 3
Experimental: Cells were incubated in 12-well plates at a density of 10 × 10^6 cells. The cell cultural medium containing 200 μM of each compound was added to the cells, and the upper medium was removed at 6 h time point. Cells were washed for three times with PBS or DMEM. After being treated with cell lysis solution (1 mL per well contained 200 μL DMSO) for 15 min, the solutions were centrifuged at […] for 10 min. The amount of compound in the upper solution was determined by a microplate reader at OD of 488 nm (Bio-Rad Mark^TM, America).

[5] = Body weight of treated tumor-bearing mice; format: in vivo, BALB/c nude mice; details: 5 mg/kg i.v. once every three days
Experimental: as §1

[6] = Appearance of solution in PBS; format: physicochemical; details: 200 μM (0.03 wt%) in PBS pH 7.4
Experimental: (§5) The Comp. […] 1. […] We thereafter added the enzyme ALP (1 U·mL^−1) to the PBS solution of Comp. 1 at 37°C, and the solution remained clear after 12 h (Figure 2(a)). […] 1 had been converted to Comp. 2 within 6 h (Figures 2(a) and ). Accordingly, the nanofibers with a diameter of 6–10 nm formed in the resulting solution of Comp. 2 (Figure 2(c)). With the addition of rat liver microsomes (226 μg·mL^−1) and NADPH (50 equiv.) to trigger the conversion from azobenzene to aniline, a yellowish precipitate was clearly observed within 24 h (Figure 2(b)). […] 2 had been converted into Comp. 3 within 24 h (Figures 2(b) and ). […] 2 and Comp. 3. […] The above observations strongly indicated the tandem molecular self-assembly behavior of Comp. 1 with the catalysis by ALP and reductase.
(§6) […] of Comp. 1 was dissolved in 500 μL of PBS (pH = 7.4) as a stock solution (PBS was bubbled by Argon for 30 min in advance). The concentration of the stock solution was 200 μM. Na2CO3 (1 M) was added to the above solution to adjust the final pH to 7.4. The solution was incubated at 37°C. The alkali phosphatase (1 U/mL) was then added to the solution for 12 hours at 37°C to trigger the first step of self-assembly. After that, rat liver microsomes (226 μg/mL) and NADPH (50 equiv.) were added for 24 hours at 37°C to trigger the second step of self-assembly.

[7] = test system: T1, alkaline phosphatase (ALP); assay: Conversion by alkaline phosphatase (LC-MS); format: in vitro ADME; details: alkaline phosphatase (ALP) in PBS; ALP 1 U/mL, 200 μM in PBS pH 7.4, 37°C, within 6 h, LC-MS trace; read-out: Comp. 1 converted to Comp. 2
T1 construct: purchased Takara D2250
Experimental: as §5, §6

U87 cells = assay: Cell proliferation (SRB) assay, U87; format: cell-based; details: 48 h incubation, n = 3
Experimental: as §3, §4

MCF-7 cells = assay: Cell proliferation (SRB) assay, MCF-7; format: cell-based; details: 48 h incubation, n = 3
Experimental: as §3, §4

PC-3 cells = assay: Cell proliferation (SRB) assay, PC-3; format: cell-based; details: 48 h incubation, n = 3
Experimental: as §3, §4

A549 cells [8] = assay: Lysosome colocalization (CLSM, Lyso-Tracker); format: cell-based, human; details: 200 μM; for lysosomal escape: 4 h, Lyso-Tracker; for mean fluorescence intensity in cells (versus cells treated with Comp. 4 and Comp. 5): A549 cells
Experimental: as §2

[9] = test system: normal human alveolar epithelial cells (HPAEpiC); assay: Cell proliferation (SRB) assay, HPAEpiC; format: cell-based; details: 48 h incubation, n = 3
Experimental: as §3, §4

[10] = test system: reductase (rat liver microsomes); assay: in vitro; format: in vitro ADME; details: pH 7.4
Experimental: as §5, §6

[11] = SRB, 48 h incubation, mean ± SEM n = 3, read-out: IC50 in A549 cells

N=C(N)NCCC[C@H](NC(=O)[C@H](CCC(=O)O)NC(=O)c1ccc(/N=N/c2ccc(NC(=O)CNC(=O)[C@H](Cc3ccc(OP(=O)(O)O)cc3)NC(=O)[C@H](Cc3ccccc3)NC(=O)[C@H](Cc3ccccc3)NC(=O)CNC(=O)CCNc3ccc([N+](=O)[O-])c4nonc34)cc2)cc1)C(=O)NCC(=O)N[C@@H](CC(=O)O)C(=O)O [Comp. 1, NBD-GFFpYG-N=N-ERGD] ({NBD-βAla}-GFF[pY]G[X1]ERGD-OH)
H&E histology of tumor tissue (A549 xenograft tumors): severely apoptotic
critical aggregation concentration (CAC) [1]: 263.6 µM
mitochondrial membrane potential (JC-1) (A549 cells [2]): caused mitochondrial depolarization
ER stress / cytoplasmic vacuolization (A549 cells [3]): massive cytoplasmic vacuolization
IC50 (HeLa cells): ~74.7 µM
IC50 (A549 cells [4]; [11]): ~2.49 µM
cellular uptake in different cells (different cell lines): no significant differences
body weight change [5]: did not exhibit a loss of body weight
appearance of solution [6]: clear solution
metabolised at 6 h, 200 μM [7]: > 95%
IC50 (U87 cells): ~5.07 µM
IC50 (MCF-7 cells): ~15.9 µM
IC50 (PC-3 cells): ~20.5 µM
lysosomal escape (A549 cells [8]): efficiently escaped from the late endosomes/lysosomes
mean fluorescence intensity in cells (versus cells treated with Comp. 4 and Comp. 5) (A549 cells [8]): significantly higher
IC50 [9]: ~40.1 µM

N=C(N)NCCC[C@H](NC(=O)[C@H](CCC(=O)O)NC(=O)c1ccc(/N=N/c2ccc(NC(=O)CNC(=O)[C@H](Cc3ccc(O)cc3)NC(=O)[C@H](Cc3ccccc3)NC(=O)[C@H](Cc3ccccc3)NC(=O)CNC(=O)CCNc3ccc([N+](=O)[O-])c4nonc34)cc2)cc1)C(=O)NCC(=O)N[C@@H](CC(=O)O)C(=O)O [Comp. 2, NBD-GFFYG-N=N-ERGD] ({NBD-βAla}-GFFYG[X1]ERGD-OH)
H&E histology of tumor tissue (A549 xenograft tumors): underwent apoptosis
ER stress / cytoplasmic vacuolization (A549 cells [3]): only caused slight ER stress
IC50 (A549 cells [4]; [11]): 82.7 µM
metabolised at 24 h, 200 μM [10]: > 70%
lysosomal escape (A549 cells [8]): small fraction of lysosomal escape
mean fluorescence intensity in cells (versus cells treated with Comp. 4 and Comp. 5) (A549 cells [8]): significantly higher

N=C(N)NCCC[C@H](NC(=O)[C@H](CCC(=O)O)NC(=O)CNC(=O)[C@H](Cc1ccc(OP(=O)(O)O)cc1)NC(=O)[C@H](Cc1ccccc1)NC(=O)[C@H](Cc1ccccc1)NC(=O)CNC(=O)CCNc1ccc([N+](=O)[O-])c2nonc12)C(=O)NCC(=O)N[C@@H](CC(=O)O)C(=O)O [Comp. 4, NBD-GFFpYGERGD] ({NBD-βAla}-GFF[pY]GERGD-OH)
IC50 (A549 cells [4]; [11]): > 500 µM

N=C(N)NCCC[C@H](NC(=O)[C@H](CCC(=O)O)NC(=O)CNC(=O)[C@H](Cc1ccc(O)cc1)NC(=O)[C@H](Cc1ccccc1)NC(=O)[C@H](Cc1ccccc1)NC(=O)CNC(=O)CCNc1ccc([N+](=O)[O-])c2nonc12)C(=O)NCC(=O)N[C@@H](CC(=O)O)C(=O)O [Comp. 5, NBD-GFFYGERGD] ({NBD-βAla}-GFFYGERGD-OH)
IC50 (A549 cells [4]; 48 h): > 500 µM
